Tests used:
[1] = test system: RBCs from donors with homozygous SCD; assay: Oxygen-independent sickle inhibition in SS blood suspensions under anoxia (100% nitrogen); assay type: cell-based, human; conditions: anoxia
Experimental: To establish oxygen-independent sickle inhibition, the incubation chamber was subsequently opened and exposed to room air for 15 minutes to ensure complete re-oxygenation and reversal of the sickled cells to normal round cells. Reversal was confirmed by microscopy. The incubation chamber was then closed, and the assay was repeated with incubation in 100% nitrogen gas for 1 hour (for screening), or up to 2.5 h (for time-course studies), with collection and fixation of blood aliquots at defined intervals. Aliquot samples were again subjected to microscopic morphological analysis of bright field images to identify the proportion of sickled and non-sickled cells, and sickle inhibition calculated.

[2] = biological target: T1, Hb (Homo sapiens, UniProt P69905); assay: Drug partitioning studies, fixed and unfixed Hb adducts in non-sickling AA blood; assay type: cell-based; set-up: Hemoglobin modification, studies using non-sickling AA blood; from tissue; host or cells: non-sickling (AA) human blood, red blood cells; conditions: 2 mM; for Fixed Adducts (%) / Unfixed Adduct (%): 6 biological replicates; for Partitioning Ratio (%): fixed relative to unfixed adducts
Experimental: RBC partitioning studies were conducted both for SS RBCs following sickling studies above, or as separate independent studies with non-sickle blood. Briefly, aliquots of blood samples, which had been incubated with test molecules, were lysed either in deionized water (un-fixed), or in water containing 50 mM sodium borohydride (fixed). Samples were subjected to cation exchange HPLC analyses, as described above. Modified […] (Hb adducts) was determined as a proportion of total Hb in each sample, and partitioning ratio was determined as the relative fraction of Hb modification of fixed samples compared to corresponding non-fixed samples. The partitioning ratio is the relative fraction of Hb that was modified intracellularly by molecules that permeated the RBC membrane, as compared to unfixed adducts which reflect Hb binding without RBC membrane permeation.
Target sequence in this assay (P69905 2-142 limits assumed): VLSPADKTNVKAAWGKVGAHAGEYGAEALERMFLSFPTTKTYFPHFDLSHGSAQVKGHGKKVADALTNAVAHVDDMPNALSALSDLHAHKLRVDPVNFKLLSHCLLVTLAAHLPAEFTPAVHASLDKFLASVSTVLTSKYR
Target sequence in this assay (P68871 2-147 partner limits assumed): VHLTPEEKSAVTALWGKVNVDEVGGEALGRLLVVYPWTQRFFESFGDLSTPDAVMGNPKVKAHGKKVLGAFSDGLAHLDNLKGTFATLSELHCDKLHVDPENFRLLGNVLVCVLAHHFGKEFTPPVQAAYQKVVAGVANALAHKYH

[3] = biological target: T1, Hb; assay: Hb modification (drug-adduct formation) in SS blood suspensions by cation-exchange HPLC; assay type: binding; set-up: Blood suspensions from subjects with homozygous SCD; from tissue; host or cells: blood suspensions (20% hematocrit) from donors with homozygous SCD; lysates of the treated red cells; conditions: 2 mM, 4 biological replicates
Experimental: All compounds (Comp 1-13) and comparator molecules (VZHE-039, PP-14, INN-310, and Voxelotor) were evaluated following established procedures. Blood samples from individual donors with homozygous SCD (obtained with informed consent) were diluted using Hemox buffer solution with the addition of glucose (10 mM) and BSA (0.2%) to adjust hematocrit of the blood suspensions to 20%, which standardizes the procedure to normalize the ratio of RBCs to drug, for assay consistency and reproducibility. Briefly, blood suspensions were incubated under room air in the presence of various concentrations of test compounds (0-2 mM) at 37° C. for 1 hour in 96-well round bottom plates. Subsequently, the suspensions were incubated with a hypoxic gas mixture (2.5% Oxygen gas/balance Nitrogen gas) at 37° C. for up to 2 hours prior to fixation with 2% glutaraldehyde solution without exposure to air. The fixated blood aliquots were evaluated by microscopic morphological analysis (image analysis on Image J software) to identify the proportion of sickled and non-sickled RBCs, and sickle inhibition calculated based on the % change from negative control (DMSO).
The residual samples were then washed in phosphate-buffered saline, and hemolyzed in hypotonic lysis buffer, with or without sodium borohydride (50 mM). Aliquots obtained from the lysates with or without sodium borohydride (to reduce Schiff base adducts) were also assessed for level of Hb modification (drug-adduct formation) by cation-exchange HPLC (Hitachi D-7000 Series, Hitachi Instruments, Inc., San Jose, CA) with a weak cation-exchange column (Poly CAT A: 50 mm×4.6 mm, Poly LC, Inc., Columbia, MD). Hemoglobin isotype peaks are eluted with a linear gradient of phase B from 0% to 80% at A410 nm (Mobile Phase A: 40 mM Bis-Tris, 2 mM KCN, pH 6.9; Phase B: 40 mM Bis-Tris, 2 mM KCN, 0.2 M sodium chloride, pH 6.55). Clarified lysate from normal human adult […] (Hb A), as well as commercial standards containing approximately equal amounts of Hb F, A, S and C (Helena Laboratories, Beaumont, TX), were utilized as reference isotypes. Reduced samples were used to assess “fixed adduct” formation (dependent on RBC membrane permeability), whereas non-reduced samples assessed drug-adduct formation independent of drug permeability.
Target sequence in this assay (P69905 2-142): as the sequence (P69905 2-142 limits assumed) above
Target sequence in this assay (P68871 with tags, fused parts or gaps E7V partner): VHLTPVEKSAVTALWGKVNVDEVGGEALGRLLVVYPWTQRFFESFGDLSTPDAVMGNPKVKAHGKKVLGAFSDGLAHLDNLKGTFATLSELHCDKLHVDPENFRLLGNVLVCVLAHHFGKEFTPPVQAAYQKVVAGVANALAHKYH

[4] = test system: sickle red blood cells; assay: Antisickling study with human sickle blood under 2.5% oxygen; assay type: cell-based; conditions: Homo sapiens, Erythrocyte, sickle RBCs, 2.5% oxygen, read-out: sickling inhibition; for inhibition at 500 µM: 0.5 mM; for inhibition at 1000 µM: 1 mM
Experimental: (§1) Blood suspensions from subjects with homozygous SCD (resuspended in Hemox™ buffer to a final hematocrit 20%) were incubated under air in the absence or presence of the compounds (0.5 mM, 1 mM and 2 mM) at 37° C. for 1 h to ensure that binding had attained equilibrium. The suspensions were then incubated under hypoxic conditions (2.5% oxygen/97.5% nitrogen) at 37° C. for 1 h. Aliquot samples were fixed with 2% glutaraldehyde solution without exposure to air, and then subjected to microscopic morphological analysis of bright field images (at 40× magnification) of single layer cells on an Olympus BX40 microscope fitted with an Infinity Lite B camera (Olympus), and the coupled Image Capture software. The residual samples were washed in phosphate-buffer saline, and hemolyzed in hypotonic lysis buffer for subsequent Hb-modification and oxygen equilibrium analyses.
The studies described above were conducted using normal whole blood. Next, we investigated whether the improvement in Hb oxygen affinity and the compounds sustained activity also translated to similar effects in SS blood from SCD patients. […] At 1 mM, PP8 and PP9 inhibited nearly 100% of sickling, while PP2, PP6, PP14 inhibited sickling by more than 70%. […] It is clear that the modifications of the present compounds has led to significant improvement in antisickling activity.

[5] = biological target: T2, sickle Hb (Homo sapiens, UniProt P69905); assay: Oxygen equilibrium (P50 shift) of lysates from treated sickle blood; assay type: cell-based; conditions: 0.5, 1 and 2 mM, SS blood
T2 construct: Blood suspensions from subjects with homozygous SCD; from tissue; host or cells: blood suspensions (20% hematocrit) from donors with homozygous SCD; lysates of the treated red cells
T2 sequence (P69905 2-142 limits assumed): as the sequence (P69905 2-142 limits assumed) above
Experimental: as §1
For oxygen equilibrium studies, approximately 100 μL aliquot samples from the above clarified lysate were added to 4 mL of 0.1M potassium phosphate buffer, pH 7.0, in cuvettes and subjected to hemoximetry analysis using a Hemox™ Analyzer (TCS Scientific Corp.) to assess P50 shifts. Degree of P50 shift (ΔP50) was expressed as percentage fractions of control DMSO-treated samples.

[6] = biological target: T1, Hb; assay: Oxygen equilibrium curve (OEC) studies with normal whole blood; assay type: cell-based; set-up: Hemoglobin modification, studies using non-sickling AA blood; from tissue; host or cells: non-sickling (AA) human blood, red blood cells; conditions: normal whole blood, 0.5, 1, 2 mM
Experimental: Oxygen equilibrium curve (OEC) studies to determine the effect of the compounds on Hb affinity for oxygen were conducted following standard procedure. Whole blood (30% hematocrit) was incubated in the absence or presence of compounds (0.5 mM, 1.0 mM and 2.0 mM) solubilized in DMSO. […] After equilibration, the sample was removed via syringe and aspirated into an ABL 700 series table top automated blood gas analyzer (Radiometer America, Inc., Westlake, OH) to determine total hemoglobin (tHb), hematocrit (Hct), pH, pCO2, partial pressure of oxygen (pO2), and the Hb-O2 saturation (sO2) values. The measured values of pO2 and sO2 at each oxygen saturation level were then subjected to nonlinear regression analysis using the software Scientist (Micromath, Salt Lake City UT) with the following equation: […]
Aromatic aldehydes are known to prevent hypoxia-induced Hb S polymerization by increasing the Hb affinity for oxygen. We therefore tested the PP compounds in a dose-dependent manner (0.5, 1, 2 mM) for their effect on Hb oxygen binding property. […] These findings confirmed that the potent in vitro activity previously seen in TD7 was at least conserved in the novel PP compounds.
Target sequence in this assay (P69905 2-142 limits assumed): as above
Target sequence in this assay (P68871 2-147 partner limits assumed): as the sequence (P68871 2-147 partner limits assumed) above

[7] = biological target: T3, intracellular Hb (Mus musculus, UniProt P01942); assay: In vivo modification of intracellular Hb in wild-type mice; set-up: species or system C57BL/6 mice; conditions: IP 150 mg/kg, 30% PEG300, 6 h
T3 construct: from tissue; host or cells: blood (red cell lysates) of dosed C57BL/6 mice
T3 sequence (P01942 2-142 limits assumed): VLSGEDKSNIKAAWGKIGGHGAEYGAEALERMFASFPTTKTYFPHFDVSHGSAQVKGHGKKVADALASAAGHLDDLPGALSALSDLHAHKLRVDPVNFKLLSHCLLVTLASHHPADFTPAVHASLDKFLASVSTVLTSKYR
T3 sequence (P02088 2-147 partner limits assumed): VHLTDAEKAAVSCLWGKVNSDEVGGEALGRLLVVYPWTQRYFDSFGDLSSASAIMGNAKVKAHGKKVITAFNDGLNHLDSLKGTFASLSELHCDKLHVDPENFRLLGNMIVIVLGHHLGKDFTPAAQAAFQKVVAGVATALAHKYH
Experimental: We tested in vivo pharmacologic (pharmacodynamics) effects of select PP compounds in C57BL/6 mice. The animals were treated with a single intraperitoneal (IP) (150 mg/kg body weight) dose of PP6, PP10, PP14, and TD7, which were formulated with 30% PEG300. Blood samples were obtained prior to treatment (0) and 1, 3 and 6 h post-treatment, via submandibular bleeding, and subjected to hemolysis using standard methods. Clarified lysates, free of cell debris and red blood cell ghosts were analyzed by cation-exchange HPLC to determine the levels of drug-modified hemoglobin (adducts); and to conduct oxygen equilibrium studies to determine degrees of shift in p50 values using methodologies described earlier for in vitro studies on human samples. In a subsequent follow-up experiment, a new excipient obtained from Catalent Pharma Solutions was also used to formulate PP14 and used for a single intraperitoneal (IP) and oral (150 mg/kg body weight) dose. Blood samples were obtained prior to treatment (0) and 1, 3 or 5 h post-treatment, via submandibular bleeding, and used to determine the levels of drug-modified hemoglobin (adducts); and to conduct oxygen equilibrium studies to determine degrees of shift in p50 values as described above.

Compound	Fixed Adducts (%) [2] [%]	Unfixed Adduct (%) [2] [%]	Partitioning Ratio (%) [2] [%]	Hb Modification (%) [3] [%]	effect on Hb oxygen binding property (OEC) [6]	modified Hb [7] [%]	polymer destabilizing effect / sickle inhibition in anoxia (in words) [1]	inhibition at 500 µM [4] [%]	inhibition at 1000 µM [4] [%]	increase of Hb affinity for oxygen in sickle blood (in words) [5]
COc1ccc(OCc2ccccn2)c(C=O)c1 [INN-310, reference compound]	82.0 ± 3.1	79.7 ± 4.3	103.0 ± 1.7	65.7 ± 6.0	–	–	only weak potency in anoxia	–	–	–
COC(=O)c1cccnc1COc1ccc(OC)cc1C=O [PP2, Methyl 2-((2-formyl-4-methoxyphenoxy)methyl)nicotinate]	–	–	–	–	most significant activities	–	–	> 35	> 70	only marginally increasing Hb affinity for oxygen
COC(=O)c1cccc(COc2ccc(OC)cc2C=O)n1 [PP3, Methyl 6-((2-formyl-4-methoxyphenoxy)methyl)picolinate]	–	–	–	–	–	–	–	–	–	only marginally increasing Hb affinity for oxygen
COC(=O)c1ncccc1COc1ccc(OC)cc1C=O [PP8, Methyl 3-((2-formyl-4-methoxyphenoxy)methyl)picolinate]	–	–	–	–	–	–	–	> 35	~100	only marginally increasing Hb affinity for oxygen

Second part, led by results:

Fixed Adducts (%) [2] [%]	Unfixed Adduct (%) [2] [%]	Partitioning Ratio (%) [2] [%]	Hb Modification (%) [3] [%]	effect on Hb oxygen binding property (OEC) [6]	modified Hb [7] [%]	Compound	polymer destabilizing effect / sickle inhibition in anoxia (in words) [1]	inhibition at 500 µM [4] [%]	inhibition at 1000 µM [4] [%]	increase of Hb affinity for oxygen in sickle blood (in words) [5]
80.4 ± 9.1	80.8 ± 5.9	99.4 ± 4.2	99.8 ± 0.4	–	–	O=Cc1c(OCc2cccnc2)ccc(F)c1O [Comp 12, 3-fluoro-2-hydroxy-6-(pyridin-3-ylmethoxy)benzaldehyde]	significantly reduced the potency of polymer inhibition	–	–	–
80.7 ± 4.8	78.4 ± 6.1	103.0 ± 2.9	79.1 ± 10.3	–	–	O=Cc1c(F)cc(F)cc1OCc1ncccc1F [Comp 13, 2,4-difluoro-6-((3-fluoropyridin-2-yl)methoxy)benzaldehyde]	completely negates the polymer destabilization effects	–	–	–
–	–	–	–	most significant activities	16.9±1.4	COC(=O)c1cccnc1COc1cccc(O)c1C=O [PP6, Methyl 2-((2-formyl-3-hydroxyphenoxy)methyl)nicotinate]	–	> 35	> 70	only marginally increasing Hb affinity for oxygen
–	–	–	–	most significant activities	–	COC(=O)c1ccc(COc2ccc(OC)cc2C=O)nc1 [PP9]	–	–	~100	only marginally increasing Hb affinity for oxygen
